Values joined by “and” are separate entries in the source; they are usually repeats but may differ in a detail not shown here. Identical values can stand only once.

Turning to `CCC1(c2ccccc2)C(=O)NCNC1=O` [primidone], the melting point – broadly, the temperature, or range, at which the solid turns liquid – was 282 °C.

As for `CC12CCC(=O)CC1CCC1C2CCC2(C)C1CCC2(O)CCc1ccccc1` (centres undefined) [17-hydroxy-21-phenylpregnan-3-one], the melting point turned out to be 177 °C.

Compound `NC(=O)c1ccccc1O` [Salicylamide] returned a melting point of 142 °C.

Regarding `CCSC(SCC)C(O)C(O)C(O)C(O)CO` (centres undefined) [6,6-di(ethylthio)hexane-1,2,3,4,5-pentaol], the melting point amounted to 128 °C.

The compound `Cc1ccc(-n2ncccc2=O)cc1` [2-(4-Methylphenyl)pyridazin-3(2H)-one] came in with a melting point of 97.8 °C.

With `CCOC(=O)C1=C(C)NC(=S)NC1c1ccccc1` (centres undefined), the melting point amounted to 205 °C.

Compound `ClC(Cl)Cl` [Chloroform] displayed a melting point of -63 °C.

Regarding `COc1cc[n+]([O-])cc1` [4-methoxypyridine n-oxide], the melting point turned out to be 102 °C.

In the case of `OB(O)c1ccc(Cl)s1` [5-chlorothiophene-2-boronic acid], the melting point amounted to 138 °C.

`N#Cc1ccccc1C(N)=O` [o-cyanobenzamide] had a melting point of 172 °C.

`Cc1ccc(C=C2N=C(c3ccccc3)OC2=O)o1` [4-(5-Methyl-furan-2-ylmethylene)-2-phenyl-4H-oxazol-5-one] showed a melting point of 160 °C.

Turning to `NCc1ccccn1` [2-(aminomethyl)pyridine], the melting point was -20 °C.

In turn, `O=C(O)CCCCCCCC(=O)O` [Azelaic Acid] returned a melting point of 106 °C.

In turn, `N#Cc1ccccc1Cl` [2-chlorobenzonitrile] displayed a melting point of 45 °C.

In the case of `CCCCCCCCCCCCCCc1ccccc1` [Tetradecylbenzene], the melting point was 9 °C.

As to `Nc1ccccc1F` [2-Fluoroaniline], the melting point was -34.6 °C.

The compound `C/C(C)=CCC` [2-Methylpent-2-ene] gave a melting point of -135 °C.

For `CCCC(=O)c1cc2ccccc2oc1=O` [3-butyrylcoumarin], the melting point was determined as 94 °C.

Take `N#Cc1ccc(C#N)cc1` [Terephthalonitrile]: the melting point came out at 226 °C.

In turn, `C=CCc1ccccc1OCC(O)CNC(C)C` (centres undefined) [alprenolol] yielded a melting point of 109 °C.

For `Cn1c(=O)c2c(ncn2CC2OCCO2)n(C)c1=O` [doxofylline], the melting point was 144 °C.

For `CC(N)(CO)CO` [2-Amino-2-methylpropane-1,3-diol], the melting point turned out to be 111 °C.

In turn, `OB(O)c1c(C(F)(F)F)cccc1C(F)(F)F` [2,6-bis(trifluoromethyl)benzeneboronic acid] yielded a melting point of 150 °C.

Take `Cc1cc2[nH]c(C)cc(=O)n2n1` [2,5-dimethylpyrazolo[1,5-a]pyrimidin-7(4h)-one]: the melting point was 253 °C.

The compound `CC1c2ccccc2C(=O)C1c1ccccc1` (centres undefined) [3-methyl-2-phenyl-2,3-dihydro-1H-inden-1-one] registered a melting point of 85 °C.

Turning to `CCNc1nc(Cl)nc(NC(C)C)n1` [atrazine], the melting point was 175 °C and 177 °C.

Take `C=Cc1ccccc1` [Styrene]: the melting point is -31 °C.

For `CNC[C@H](O)[C@@H](O)[C@H](O)[C@H](O)CO` [N-methyl-D-glucamine], the melting point was found to be 130 °C.

Take `CC(C(O)c1ccc(O)cc1)N1CCC(Cc2ccccc2)CC1` (centres undefined) [ifenprodil]: the melting point was 114 °C.

`C=C(CC)CC` [2-ethyl-1-butene] came in with a melting point of -132 °C.

For the compound `CN(C)C(=O)Nc1ccc(Cl)cc1` [monuron], the melting point was 172 °C and 174 °C.

`O=C(Cl)c1cc(Cl)cc(Cl)c1` [3,5-dichlorobenzoyl chloride] had a melting point of 26 °C.

Compound `CC1(C)C[C@@H](C(=O)O)[C@@H]1N` (relative stereo) [trans-2-Amino-3,3-dimethylcyclobutane-1-carboxylic acid] had a melting point of 155 °C.

Regarding `CCC1(C2=CCCCCC2)C(=O)NC(=O)NC1=O` [heptabarbital], the melting point is 174 °C.

`Cc1ccc(O)c(/N=N/c2c(O)cc(S(=O)(=O)O)c3ccccc23)c1` returned a melting point of 300 °C.

With `CC(=O)Nc1ccc(Cl)cc1F` [2-fluoro-4-chloroacetanilide], the melting point worked out at 157 °C.

Compound `OCC(O)C(O)C(O)C(O)CO` (centres undefined) [Mannitol] showed a melting point of 168 °C.

Compound `O=[N+]([O-])c1c(Cl)c(Cl)cc(Cl)c1Cl` [2,3,5,6-tetrachloronitrobenzene] showed a melting point of 100 °C.

As to `Nc1ccc(C/C(=N/O)c2ccc(N)cc2)cc1` [(1Z)-1,2-bis(4-aminophenyl)ethanone oxime], the melting point was 147 °C.

Regarding `CCN(CC)CCSC(=O)N(c1ccccc1)c1ccccc1` [phencarbamide], the melting point came to 48 °C.

Take `O=C1CCC(c2ccccc2)CC1` [4-phenylcyclohexanone]: the melting point stood at 80 °C.

The compound `O=C(O)c1ccccc1` [benzoic_acid] showed a melting point of 123 °C.

`Nc1ccc(C(=O)O)cc1` [p-aminobenzoic_acid] came in with a melting point of 189 °C.

`Nc1cc(N2CCCCC2)nc(N)[n+]1[O-]` [Minoxidil] gave a melting point of 248 °C.

`c1ccc2nc3ccccc3cc2c1` [acridine] came in with a melting point of 109 °C.

Take `Cc1ccc(B(O)O)cc1C` [3,4-dimethylbenzeneboronic acid]: the melting point came to 220 °C.

The compound `O=C(CC(=O)c1ccccc1)c1ccccc1` [1,3-diphenyl-1,3-propanedione] came in with a melting point of 78 °C.

As to `C=C(C)C(=O)OCC` [Ethyl methacrylate], the melting point was -75 °C.

As to `CN(C)c1ccc([N+]([O-])=CC(=O)c2ccc(C(=O)C=[N+]([O-])c3ccc(N(C)C)cc3)cc2)cc1`, the melting point was 133 °C.

In turn, `CC1=CCCCC1` [1-methylcyclohexene] returned a melting point of -120 °C.

For `Oc1ccc2cc(O)ccc2c1` [2,6-dihydroxynaphthalene], the melting point was found to be 224 °C.

The compound `ClC=C(Cl)Cl` [trichloroethylene] had a melting point of -85 °C.

In turn, `CN(C)CCN1C(=O)c2ccccc2N(C)c2ccccc21` [dibenzepin] had a melting point of 116 °C.

The compound `Nc1c(Cl)cccc1Cl` [2,6-dichloroaniline] had a melting point of 40 °C.

Turning to `C=CCCl` [3-Chloroprop-1-ene], the melting point is -134 °C.

Compound `Cc1ccccc1NC=O` [N-(2-Methylphenyl)formamide] gave a melting point of 53 °C.

`NC(Cc1ccc(N(CCCl)CCCl)cc1)C(=O)O` (centres undefined) [Melphalan] came in with a melting point of 182 °C.

The compound `c1ccc2c(c1)CCCC2` [1,2,3,4-Tetrahydronaphthalene] registered a melting point of -31 °C.

The compound `c1ccc2ccccc2c1` [Naphthalene] gave a melting point of 77 °C.

Take `N#CCc1cccc(CC#N)c1` [1,3-phenylenediacetonitrile]: the melting point is 34 °C.

Take `OC[C@@H]1OC(O)[C@@H](O)[C@H]1O` (stereo partly drawn) [L-ribose]: the melting point amounted to 87 °C.

Consider `O=C(O)COc1ccc(CO)cc1` [4-(hydroxymethyl)phenoxyacetic acid], for which the melting point was determined as 112 °C.

As to `CN(C)c1ccc(C=O)cc1` [4-(Dimethylamino)benzaldehyd], the melting point stood at 75 °C.

The compound `CN(C)CCCN` [N,N-dimethyl-1,3-propanediamine] registered a melting point of -70 °C.

`CC(C)(C)OC(=O)N[C@@H](Cc1ccc(Cl)cc1Cl)C(=O)O` [N-boc-2,4-dichloro-L-phenylalanine]: the melting point was found to be 135 °C.

On to `CCc1ccc2c(c1)C(=O)c1ccccc1C2=O` [2-Ethylanthraquinone], for which the melting point was found to be 109 °C.

`OC1CCCCC1` [Cyclohexanol]: the melting point was 21 °C.

`Nc1cccc(I)c1` [3-iodoaniline]: the melting point is 23 °C.

`N#Cc1ccc(F)cc1` [4-fluorobenzonitrile] returned a melting point of 36 °C.

In the case of `N#CCc1nn(-c2ccccc2)c(N)c1C#N` [5-amino-4-cyano-3-cyanomethyl-1-phenyl-1h-pyrazole,], the melting point worked out at 164 °C.

Consider `CCOC(=O)c1ccc([N+](=O)[O-])o1` [ethyl 5-nitro-2-furoate], for which the melting point was 101 °C.

With `CCCCC1=NC2(CCCC2)C(=O)N1Cc1ccc(-c2ccccc2-c2nnn[nH]2)cc1` [Irbesartan], the melting point turned out to be 180 °C.

The compound `Nc1ccc(O)cc1` [4-Aminophenol] yielded a melting point of 189 °C.

`CC12CCC(/C(=C/Nc3ccccc3)C1=O)C2(C)C` (centres undefined) registered a melting point of 166 °C.

With `O=Cc1ccc(B(O)O)cc1C(F)(F)F` [4-formyl-3-(trifluoromethyl)benzeneboronic acid], the melting point was 201 °C.

The compound `CCCCC(=O)O` [valeric acid] registered a melting point of -34 °C.

`Oc1ccc(-c2ccc(O)cc2)cc1` [4,4'-dihydroxybiphenyl]: the melting point is 282 °C.

`Clc1c2ccccc2cc2ccccc12` [9-chloroanthracene]: the melting point amounted to 104 °C.

The compound `OC[C@@H](O)[C@@H](O)[C@H](O)[C@@H](O)CO` [D-sorbitol] yielded a melting point of 99 °C.

In the case of `O=C4\C=C2/[C@]([C@H]1CC[C@@]3([C@@H](C(=O)C)CC[C@H]3[C@@H]1CC2)C)(C)CC4` [progesterone], the melting point is 131 °C and 130 °C.

On to `O=C[C@@H](O)[C@@H](O)[C@@H](O)[C@H](O)CO` [alpha-D-talose], for which the melting point came to 134 °C.

Take `CCCC(C)(COC(N)=O)COC(N)=O` [meprobamate]: the melting point was found to be 104 °C.

`O=C1c2ccccc2Cc2ccccc21` [anthrone] had a melting point of 157 °C.

With `CCCCCCCCCCCCCCCCCC(=O)OC[C@@H](O)[C@H]1OC[C@H](O)[C@H]1O` [1,4-Anhydro-6-O-stearoyl-D-glucitol], the melting point was found to be 57 °C.

`CC1CCCCC1` [Methylcyclohexane] showed a melting point of -127 °C.

`CCCCCCC(O)CCCCCCCCCCC(=O)O` (centres undefined) [12-Hydroxyoctadecanoic acid] registered a melting point of 80.5 °C.

Take `CC(C)(Oc1ccc(Cl)cc1)C(=O)O` [2-(4-chlorophenoxy)isobutyric acid]: the melting point is 120 °C.

The compound `c1ccc2c(c1)CCCC2` [1,2,3,4-tetrahydronaphthalene(tetralin)] yielded a melting point of -35 °C.

In the case of `Cc1cc(C)nc(NS(=O)(=O)c2ccc(N)cc2)n1` [Sulfamethazine], the melting point was 198 °C.

Source of the values: the Bradley open melting point set (2014).
